From PMC12638379, “An innovative approach to development of new pyrazolylquinolin-2-one hybrids as dual EGFR and BRAF^V600E inhibitors” (Molecular Diversity, 2025)
Like-named read-outs stand apart in the source and are kept apart here.

Key:
EGFR = target: T1, EGFR (Homo sapiens, UniProt P00533); assay: EGFR inhibitory assay; type: biochemical; conditions: for %inh: EGFR, unit not given
T1 construct: EGFR cytoplasmic domain (EGFR-CD, amino acids 645–1186); His6 (N); made in house; host or cells: Sf-9 insect cells (baculovirus)
T1 sequence (P00533 669-1210): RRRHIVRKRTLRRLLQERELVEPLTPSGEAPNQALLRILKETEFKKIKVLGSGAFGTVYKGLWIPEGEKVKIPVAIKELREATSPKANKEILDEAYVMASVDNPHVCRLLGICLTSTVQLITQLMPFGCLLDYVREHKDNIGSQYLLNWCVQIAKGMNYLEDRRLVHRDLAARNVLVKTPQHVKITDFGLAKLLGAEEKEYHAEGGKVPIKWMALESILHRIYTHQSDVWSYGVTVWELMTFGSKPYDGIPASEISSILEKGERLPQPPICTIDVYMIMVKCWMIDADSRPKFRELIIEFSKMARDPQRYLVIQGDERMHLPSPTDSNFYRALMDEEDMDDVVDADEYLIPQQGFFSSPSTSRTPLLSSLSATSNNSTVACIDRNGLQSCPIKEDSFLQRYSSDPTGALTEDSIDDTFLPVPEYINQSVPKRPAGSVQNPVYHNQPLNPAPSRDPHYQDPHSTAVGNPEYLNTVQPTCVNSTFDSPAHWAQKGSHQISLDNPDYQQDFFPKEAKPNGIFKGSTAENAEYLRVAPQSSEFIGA

[1] = MTT cytotoxicity on normal cell line WI-38; conditions: human, WI-38 normal cells, % viability
NCI 60 cancer cell lines = assay: NCI anticancer screening over a panel of 60 cancer cells, single concentration 10 µM; type: cell-based, human; conditions: Homo sapiens, read-out: % Growth Inhibition (GI %)
In short: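 Run under the NCI Compound Evaluation Branch protocol, each compound was tested once at 10 µM. The panel comprised 60 cancer cell lines of diverse tissue origin, including leukemia, lung, colon, CNS, renal, ovarian, breast and prostate.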

[2] = test system: leukemia (MOLT-4) cell line; assay: MTT antiproliferative assay, MOLT-4; type: cell-based, human
Description: (§1) After 24 h of culture incubation and supernatants discarded.

[3] = test system: lung cancer (HOP-92) cell line; assay: MTT antiproliferative assay, HOP-92; type: cell-based, human
Description: […]. […] See Appendix B.
as §1

[4] = test system: breast cancer (T47D) cell line; assay: MTT antiproliferative assay, T-47D
In short: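 HOP-92, MOLT-4 and T-47D cells in DMEM/10% FBS/insulin exposed 24 h to serial 10-fold dilutions […]; MTT added 2–4 h, absorbance at 570 nm with 690 nm background subtraction. Percent viable cells gives IC50; GI50 is the average IC50 across the three lines.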

BRAF^V600E = BRAF^V600E (Homo sapiens, UniProt P15056, V600E); assay: BRAF^V600E inhibitory assay (B-Raf (V600E) Kinase Assay); type: biochemical; conditions: read-out: BRAF^V600E inhibition IC50 ± SEM
Sequence of BRAF^V600E (P15056 whole entry V600E): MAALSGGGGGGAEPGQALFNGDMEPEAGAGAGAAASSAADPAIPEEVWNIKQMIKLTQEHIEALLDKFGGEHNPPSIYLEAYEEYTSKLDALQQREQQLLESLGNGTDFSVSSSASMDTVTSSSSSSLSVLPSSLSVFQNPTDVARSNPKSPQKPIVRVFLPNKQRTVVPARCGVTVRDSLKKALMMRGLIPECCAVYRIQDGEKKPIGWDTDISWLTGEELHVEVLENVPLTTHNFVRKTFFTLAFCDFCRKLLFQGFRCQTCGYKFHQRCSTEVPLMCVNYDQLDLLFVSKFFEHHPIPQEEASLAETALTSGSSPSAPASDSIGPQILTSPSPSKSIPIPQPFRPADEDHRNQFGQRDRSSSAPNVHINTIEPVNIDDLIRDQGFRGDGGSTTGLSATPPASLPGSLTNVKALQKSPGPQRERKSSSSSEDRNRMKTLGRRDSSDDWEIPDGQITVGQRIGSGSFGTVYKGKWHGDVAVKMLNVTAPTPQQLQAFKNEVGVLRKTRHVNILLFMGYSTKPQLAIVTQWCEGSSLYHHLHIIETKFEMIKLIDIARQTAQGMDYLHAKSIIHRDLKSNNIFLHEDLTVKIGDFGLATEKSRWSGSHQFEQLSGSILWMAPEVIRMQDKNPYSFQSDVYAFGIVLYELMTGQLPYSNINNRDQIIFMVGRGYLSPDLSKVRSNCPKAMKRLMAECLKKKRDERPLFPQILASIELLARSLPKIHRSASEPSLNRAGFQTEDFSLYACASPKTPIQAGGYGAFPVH

## C/C(=N\Nc1ccc(C(=O)O)cc1)c1cnn(-c2cc(=O)[nH]c3ccc(C)cc23)c1C [Compound 4g, (E)-4-(2-(1-(5-methyl-1-(6-methyl-2-oxo-1,2-dihydroquinolin-4-yl)-1H-pyrazol-4-yl)ethylidene)hydrazineyl)benzoic acid]
EGFR; conc 0.01 (log -2)
  %inh: 21%
EGFR; conc 0.1 (log -1)
  %inh: 44.2%
EGFR; conc 1 (log 0)
  %inh: 71.4%
EGFR; conc 10 (log 1)
  %inh: 86.3%
EGFR; conc 100 (log 2)
  %inh: 94.5%
EGFR; read-out: EGFR inhibition IC50 ± SEM
  IC50: 0.194 ± 0.007 µM
[1]; WI38, 0.4uM (log conc. -0.41)
  viability at 24 h, 0.4 µM: 80.4%
[1]; WI38, 1.6uM (log conc. 0.19)
  viability at 24 h, 1.6 µM: 70.2%
[1]; WI38, 6.3uM (log conc. 0.8)
  viability at 24 h, 6.3 µM: 62.8%
[1]; WI38, 25uM (log conc. 1.4)
  viability at 24 h, 25 µM: 51.6%
[1]; WI38, 100uM (log conc. 2)
  viability at 24 h, 100 µM: 44.1%
NCI 60 cancer cell lines; 786-0, Renal cancer 786-0, 10 μM
  inhibition at 10 µM: 6.84%
NCI 60 cancer cell lines; A498, Renal cancer A498, 10 μM
  inhibition at 10 µM: < 5%
NCI 60 cancer cell lines; A549, Non-small cell lung cancer A549/ATCC, 10 μM
  inhibition at 10 µM: < 5%
NCI 60 cancer cell lines; ACHN, Renal cancer ACHN, 10 μM
  inhibition at 10 µM: < 5%
NCI 60 cancer cell lines; BT-549, Breast cancer BT-549, 10 μM
  inhibition at 10 µM: 11.6%
NCI 60 cancer cell lines; CAKI-1, Renal cancer CAKI-1, 10 μM
  inhibition at 10 µM: 10.3%
NCI 60 cancer cell lines; CCRF-CEM, Leukemia CCRF-CEM, 10 μM
  inhibition at 10 µM: 6.98%
NCI 60 cancer cell lines; DU-145, Prostate cancer DU-145, 10 μM
  inhibition at 10 µM: < 5%
NCI 60 cancer cell lines; EKVX, Non-small cell lung cancer EKVX, 10 μM
  inhibition at 10 µM: 7.01%
NCI 60 cancer cell lines; HCC 2998, Colon cancer HCC-2998, 10 μM
  inhibition at 10 µM: < 5%
NCI 60 cancer cell lines; HL-60, Leukemia HL-60(TB), 10 μM
  inhibition at 10 µM: < 5%
NCI 60 cancer cell lines; HOP-62, Non-small cell lung cancer HOP-62, 10 μM
  inhibition at 10 µM: 6.86%
NCI 60 cancer cell lines; HOP-92, Non-small cell lung cancer HOP-92, 10 μM
  inhibition at 10 µM: 93.9%
NCI 60 cancer cell lines; HT-29, Colon cancer HT29, 10 μM
  inhibition at 10 µM: < 5%
NCI 60 cancer cell lines; Hs-578T, Breast cancer HS 578T, 10 μM
  inhibition at 10 µM: 7.48%
NCI 60 cancer cell lines; IGROV-1, Ovarian cancer IGROV1, 10 μM
  inhibition at 10 µM: < 5%
NCI 60 cancer cell lines; K562, Leukemia K-562, 10 μM
  inhibition at 10 µM: < 5%
NCI 60 cancer cell lines; LOX IMVI, Melanoma LOX IMVI, 10 μM
  inhibition at 10 µM: 5.11%
NCI 60 cancer cell lines; Leukemia SR, 10 μM
  inhibition at 10 µM: 11.4%
NCI 60 cancer cell lines; MCF7, Breast cancer MCF7, 10 μM
  inhibition at 10 µM: 9.62%
NCI 60 cancer cell lines; MDA-MB-231, Breast cancer MDA-MB-231/ATCC, 10 μM
  inhibition at 10 µM: 8.94%
NCI 60 cancer cell lines; MDA-MB-435, Melanoma MDA-MB-435, 10 μM
  inhibition at 10 µM: < 5%
NCI 60 cancer cell lines; MDA-MB-468, Breast cancer MDA-MB-468, 10 μM
  inhibition at 10 µM: 16.8%
NCI 60 cancer cell lines; Melanoma MALM-3M, 10 μM
  inhibition at 10 µM: 16.7%
NCI 60 cancer cell lines; NCI-H23, Non-small cell lung cancer NCI-H23, 10 μM
  inhibition at 10 µM: < 5%
NCI 60 cancer cell lines; NCI-H226, Non-small cell lung cancer NCI-H226, 10 μM
  inhibition at 10 µM: 9.91%
NCI 60 cancer cell lines; NCI-H322M, Non-small cell lung cancer NCI-H322M, 10 μM
  inhibition at 10 µM: < 5%
NCI 60 cancer cell lines; NCI-H460, Non-small cell lung cancer NCI-H460, 10 μM
  inhibition at 10 µM: < 5%
NCI 60 cancer cell lines; NCI-H522, Non-small cell lung cancer NCI-H522, 10 μM
  inhibition at 10 µM: 10.6%
NCI 60 cancer cell lines; NCI/ADR-RES, Ovarian cancer NCI/ADR-RES, 10 μM
  inhibition at 10 µM: < 5%
NCI 60 cancer cell lines; OVCAR-4, Ovarian cancer OVCAR-4, 10 μM
  inhibition at 10 µM: 5.43%
NCI 60 cancer cell lines; OVCAR-8, Ovarian cancer OVCAR-8, 10 μM
  inhibition at 10 µM: < 5%
NCI 60 cancer cell lines; Prostate cancer PC-3, 10 μM
  inhibition at 10 µM: 11.2%
NCI 60 cancer cell lines; RPMI-8226, Leukemia RPMI-8226, 10 μM
  inhibition at 10 µM: 14.9%
NCI 60 cancer cell lines; RXF 393, Renal cancer RXF 393, 10 μM
  inhibition at 10 µM: 6.27%
NCI 60 cancer cell lines; SF-539, CNS Cancer SF-539, 10 μM
  inhibition at 10 µM: < 5%
NCI 60 cancer cell lines; SK-MEL-2, Melanoma SK-MEL-2, 10 μM
  inhibition at 10 µM: < 5%
NCI 60 cancer cell lines; SK-MEL-28, Melanoma SK-MEL-28, 10 μM
  inhibition at 10 µM: < 5%
NCI 60 cancer cell lines; SK-OV-3, Ovarian cancer SK-OV-3, 10 μM
  inhibition at 10 µM: 5.67%
NCI 60 cancer cell lines; SN12C, Renal cancer SN12C, 10 μM
  inhibition at 10 µM: 7.44%
NCI 60 cancer cell lines; SNB-75, CNS Cancer SNB-75, 10 μM
  inhibition at 10 µM: 8.08%
NCI 60 cancer cell lines; TK-10, Renal cancer TK-10, 10 μM
  inhibition at 10 µM: < 5%
NCI 60 cancer cell lines; U-251, CNS Cancer U251, 10 μM
  inhibition at 10 µM: < 5%
NCI 60 cancer cell lines; UACC-62, Melanoma UACC-62, 10 μM
  inhibition at 10 µM: 8.46%
NCI 60 cancer cell lines; UACC-257, Melanoma UACC-257, 10 μM
  inhibition at 10 µM: < 5%
NCI 60 cancer cell lines; UO-31, Renal cancer UO-31, 10 μM
  inhibition at 10 µM: 32.1%
[2]; Homo sapiens, MOLT-4, MOLT-4, MTT, 0.4uM
  viability at 0.4 µM: 68.9%
[2]; Homo sapiens, MOLT-4, MOLT-4, MTT, 1.6uM
  viability at 1.6 µM: 54.8%
[2]; Homo sapiens, MOLT-4, MOLT-4, MTT, 6.3uM
  viability at 6.3 µM: 48.2%
[2]; Homo sapiens, MOLT-4, MOLT-4, MTT, 25uM
  viability at 25 µM: 42.4%
[2]; Homo sapiens, MOLT-4, MOLT-4, MTT, 100uM
  viability at 100 µM: 35.3%
[2]; Homo sapiens, MOLT-4, MTT, read-out: Antiproliferative activity IC50 ± SEM, MOLT-4
  IC50: 6.17 ± 0.25 µM
[2]; MOLT-4, MTT, 1.6uM, listed as Ws7, 1.6 µM
  % viability: 54.85%
[2]; MOLT-4, MTT, 6.3uM, listed as Ws7, 6.3 µM
  % viability: 48.2%
[2]; MOLT-4, MTT, 25uM, listed as Ws7, 25 µM
  % viability: 42.37%
[2]; MOLT-4, MTT, 100uM, listed as Ws7, 100 µM
  % viability: 35.35%
[3]; HOP-92, MTT, 25uM, listed as Ws7, 25 µM
  % viability: 48.02%
[3]; HOP-92, MTT, 100uM, listed as Ws7, 100 µM
  % viability: 33.71%
[3]; Homo sapiens, HOP-92, HOP-92, MTT, 0.4uM, read-out: % viability
  viability at 0.4 µM: 78%
[3]; Homo sapiens, HOP-92, HOP-92, MTT, 1.6uM, read-out: % viability
  viability at 1.6 µM: 67%
[3]; Homo sapiens, HOP-92, HOP-92, MTT, 6.3uM, read-out: % viability
  viability at 6.3 µM: 56.5%
[3]; Homo sapiens, HOP-92, HOP-92, MTT, 25uM, read-out: % viability
  viability at 25 µM: 48%
[3]; Homo sapiens, HOP-92, HOP-92, MTT, 100uM, read-out: % viability
  viability at 100 µM: 33.7%
[3]; Homo sapiens, HOP-92, MTT, read-out: Antiproliferative activity IC50 ± SEM, HOP-92
  IC50: 14.7 ± 0.66 µM
[4]; Homo sapiens, T47D, T-47D, 0.4uM (log conc. -0.41)
  viability at 0.4 µM: 68.5%
[4]; Homo sapiens, T47D, T-47D, 1.6uM (log conc. 0.19)
  viability at 1.6 µM: 61.7%
[4]; Homo sapiens, T47D, T-47D, 6.3uM (log conc. 0.8)
  viability at 6.3 µM: 55%
[4]; Homo sapiens, T47D, T-47D, 25uM (log conc. 1.4)
  viability at 25 µM: 44.6%
[4]; Homo sapiens, T47D, T-47D, 100uM (log conc. 2)
  viability at 100 µM: 34%
[4]; Homo sapiens, T47D, read-out: Antiproliferative activity IC50 ± SEM, T-47D, MTT
  IC50: 9.71 ± 0.34 µM
[4]; T-47D, 0.4uM (log conc. -0.41), listed as Ws7, 0.4 µM
  % viability: 68.49%
[4]; T-47D, 1.6uM (log conc. 0.19), listed as Ws7, 1.6 µM
  % viability: 61.66%
[4]; T-47D, 6.3uM (log conc. 0.8), listed as Ws7, 6.3 µM
  % viability: 55.01%
[4]; T-47D, 25uM (log conc. 1.4), listed as Ws7, 25 µM
  % viability: 44.58%
[4]; T-47D, 100uM (log conc. 2), listed as Ws7, 100 µM
  % viability: 33.98%
BRAF^V600E
  IC50: 0.194 ± 0.008 µM
